Measured values: patent US20090099150A1, “Methotrexate Combinations For Treating Inflammatory Diseases” (priority 2005, published 2009)

What was measured:
[1] = system: collagen-induced arthritis; test: Hind paw volume by plethysmometry in collagen-induced arthritis; assay type: in vivo, Lewis rats; settings: CIA rats, alone
[2] = Body weight gain in collagen-induced arthritis; assay type: in vivo, Lewis rats; settings: CIA rats
Method: (§1) Animals were randomly divided into sixth groups (n=10 for each group); (1) Sham group receiving intraperitoneally 26 mM sodium bicarbonate buffer at pH 8.1-8.3 which constituted the vehicle for M40403; (2) CIA group which constituted rats subjected to collagen induced arthritis as described below; (3) CIA+M40403 (2 mg/kg) group in which rats subjected to collagen-induced arthritis received M40403 at 2 mg/kg i.p. every 24 h, starting from day 25; (4) CIA+MET (0.015 mg/kg) group in which rats subjected to collagen-induced arthritis received orally, methotrexate at 0.015 mg/kg starting from day 25; (5) CIA+MET (0.15 mg/kg) group in which rats subjected to collagen-induced arthritis received orally, methotrexate at 0.15 mg/kg starting from day 25; (6)
(§2) CIA+MET+M40403 group in which rats subjected to collagen-induced arthritis received methotrexate (0.015 mg/kg; orally) and with M4043 (2 mg/kg, i.p.) starting from day 25.
(§3) Collagen-induced arthritis was produced as follows. Bovine type II collagen was dissolved in 0.01 M acetic acid at a concentration of 2 mg/ml by stirring overnight at 4° C. Dissolved collagen was frozen at −70° C. until use. Complete Freund's adjuvant was prepared by the addition of Mycobacterium tuberculosis H37Ra at a concentration of 2 mg/ml. Before injection, the collagen was emulsified with an equal volume of complete Freund's adjuvant. Collagen-induced arthritis was elicited as previously described (Salvemini et al Arthritis & rheumatism 44:2909-2921, 2001). On day 1, Lewis rats were injected intradermally at the base of the tail with 100 μl of the emulsion (containing 100 μg of bovine type II collagen). On day 21, a second injection of type II collagen in complete Freund's adjuvant was administered.

[3] = system: type II collagen induced arthritis; settings: Salvemini et al., Arthritis & Rheumatism 44:2909-2921, 2001; cited from earlier work
IL-1β = test: Plasma IL-1β level (ELISA) at 35 days in collagen-induced arthritis; assay type: in vivo, Lewis rats; settings: CIA rats, day 35
Method: as §1, §2, §3
(§4) TNF-α and IL-1β levels were evaluated in plasma at 35 days after the induction of arthritis. The assay was carried out by using a calorimetric, commercial kit (Calbaiochem-Novabiochem Corporation, USA). The ELISA has a lower detection limit of 5 pg/ml.

TNF-α = test: Plasma TNF-α level (ELISA) at 35 days in collagen-induced arthritis; assay type: in vivo, Lewis rats; settings: CIA rats, day 35
Method: as §1, §2, §3, §4

[4] = system: collagen-induced arthritis; test: Radiography of hind paws at day 35; assay type: in vivo, Lewis rats; settings: CIA rats; for protection from bone resorption / joint pathology (FIG. 4: histological damage score and radiograph score): alone; for radiographic bone resorption / joint pathology of hind paws: methotrexate 0.15 mg/kg orally
inflammation = settings: Salvemini et al., Science 286:304-306, 1999; cited from earlier work
[5] = system: collagen-induced arthritis; test: Clinical assessment of collagen-induced arthritis (percent arthritic rats, arthritis index); assay type: in vivo, Lewis rats; settings: CIA rats
[6] = system: collagen-induced arthritis; test: Histological assessment of joint injury at day 35; assay type: in vivo, Lewis rats; settings: CIA rats, methotrexate 0.15 mg/kg orally
[7] = methotrexate 0.015 mg/kg orally
[8] = methotrexate 0.015 mg/kg orally, alone

## [Cl-].[Cl-].[Mn+2].c1cc2nc(c1)CN[C@@H]1CCCC[C@H]1NCCN[C@@H]1CCCC[C@H]1NC2 [M40403]
[1]; M40403 2 mg/kg i.p.
  hind paw volume (paw edema): attenuated the paw edema from day 30 to 35
[2]; M40403 2 mg/kg i.p., alone
  body weight gain: significantly attenuated the loss in body weight
[3]
  efficacy in an animal model of rheumatoid arthritis: effective
IL-1β; M40403 2 mg/kg i.p., alone
  plasma level of IL-1β: No significant effect
TNF-α; M40403 2 mg/kg i.p., alone
  plasma level of TNF-α: No significant effect
[4]; M40403 2 mg/kg i.p.
  protection from bone resorption / joint pathology (FIG. 4: histological damage score and radiograph score): No significant protection
inflammation
  efficacy in animal models of inflammation: effective
[5]; M40403 2 mg/kg i.p. every 24 h from day 25, alone
  development of collagen-induced arthritis (percent of arthritic rats): did not significantly altered the development of collagen-induced arthritis
[5]; M40403 2 mg/kg i.p., alone
  arthritis index: Neither M40403 (2 mg/kg) nor methotrexate. (0.015 mg/kg) treatment alone attenuated the arthritis index

## CN(Cc1cnc2nc(N)nc(N)c2n1)c1ccc(C(=O)N[C@@H](CCC(=O)O)C(=O)O)cc1 [methotrexate, N-[4-[[(2,4-Diamino-6-pteridinyl)methyl]methylamino]benzoyl]-L-glutamic acid]
[1]; [7]
  hind paw volume (paw edema): attenuated the paw edema from day 30 to 35
[1]; methotrexate 0.15 mg/kg orally
  hind paw volume (hind paw swelling): continuously significant (P<0.001) suppression of hind paw swelling from day 26 to 35
[1]; Rattus norvegicus, po, 672 h, methotrexate 0.15 mg/kg orally, from day 28 to 35, read-out: maximal response, suppression of hind paw swelling
  Emax at 0.15 mg/kg: 70%
[2]; [8]
  body weight gain: significantly attenuated the loss in body weight
[2]; methotrexate 0.15 mg/kg orally
  body weight gain: positively affected the weight gain
IL-1β; [8]
  plasma level of IL-1β: No significant effect
IL-1β; methotrexate 0.15 mg/kg orally
  plasma level of IL-1β: significantly lower
TNF-α; [8]
  plasma level of TNF-α: No significant effect
TNF-α; methotrexate 0.15 mg/kg orally
  plasma level of TNF-α: significantly lower
[4]; [7]
  protection from bone resorption / joint pathology (FIG. 4: histological damage score and radiograph score): No significant protection
[4]
  radiographic bone resorption / joint pathology of hind paws: suppression of joint pathology
[4]; listed as Methogtrexate
  radiographic bone resorption / joint pathology of hind paws: markedly protect from bone resorption
[6]
  histology of the paw: bone erosion and degree of arthritis (damage score): the bone erosion as well as the degree of arthritis were significantly reduced
[5]; methotrexate 0.015 mg/kg orally from day 25, alone
  development of collagen-induced arthritis (percent of arthritic rats): did not significantly altered the development of collagen-induced arthritis
[5]; [8]
  arthritis index: Neither M40403 (2 mg/kg) nor methotrexate. (0.015 mg/kg) treatment alone attenuated the arthritis index
[5]; methotrexate 0.15 mg/kg orally from day 25, alone
  development of collagen-induced arthritis (percent of arthritic rats): significant reduction in the percent of arthritic rats
[5]; methotrexate 0.15 mg/kg orally, between days 26 and 35 after immunization
  arthritis index: significant suppression (P<0.01)
